Results taken from US20240102075A1, “METHOD FOR QUANTIFYING 25-HYDROXYVITAMIN D, HYDROXYLASE, QUANTIFICATION COMPOSITION, QUANTIFICATION KIT, ELECTRODE, SENSOR CHIP, AND SENSOR” (KIKKOMAN CORPORATION, priority 2021, published 2024).

Key:
[1] = cited from earlier work
[2] = hydroxylase activity using ferredoxin as a mediator, absorbance at 340 nm; assay type: biochemical; conditions: 0.5 mM 25-hydroxyvitamin D3, ferredoxin/ferredoxin reductase/NADPH, 90 seconds, 30° C.
Method: VDH obtained by the above-described method and ferredoxin were used to measure hydroxylase activity using 25-hydroxyvitamin D3, which is a vitamin D derivative, as a substrate.
4.19 mg of 25-hydroxyvitamin D3 was dissolved in 1 ml of DMSO (final concentration: 10 mM). Since 25-hydroxyvitamin D3 is lipid-soluble, it was diluted to 1 mM (concentration at the time of measurement: 0.5 mM) using 4.0% (v/v) TritonX-100 solution to maintain solubility.
After incubating 500 μl of the measurement reagent consisting of the composition of Table 2 at 30° C. for 3 minutes, 500 μl of the substrate reagent was added, and the absorbance (Abs) at the wavelength 340 nm was measured over time for 90 seconds using a spectrophotometer (U-3900, manufactured by Hitachi High-Tech Science Corporation). […] Therefore, it was shown that 25-hydroxyvitamin D can be quantified by hydroxylase activity of VDH using ferredoxin as a mediator.

Molecule: 1,25-dihydroxyvitamin D
- half-life in the blood ([1]; in blood): about 15 hours

Molecule: 25-hydroxyvitamin D
- blood half-life ([1]; in vivo): 2-3 weeks

B1: VDH: Vitamin D hydroxylase derived from Pseudonocardia autotrophica NBRC12743 strain, SEQ ID NO: 1, expressed in E. coli (protein, listed as Pseudonocardia autotrophica)
chain: MALTTTGTEQHDLFSGTFWQNPHPAYAALRAEDPVRKLALPDGPVWLLTRYADVREAFVDPRLSKDWRHTLPEDQRADMPATPTPMMILMDPPDHTRLRKLVGRSFTVRRMNELEPRITEIADGLLAGLPTDGPVDLMREYAFQIPVQVICELLGVPAEDRDDFSAWSSVLVDDSPADDKNAAMGKLHGYLSDLLERKRTEPDDALLSSLLAVSDEDGDRLSQEELVAMAMLLLIAGHETTVNLIGNGVLALLTHPDQRKLLAEDPSLISSAVEEFLRFDSPVSQAPIRFTAEDVTYSGVTIPAGEMVMLGLAAANRDADWMPEPDRLDITRDASGGVFFGHGIHFCLGAQLARLEGRVAIGRLFADRPELALAVGLDELVYRESTLVRGLSRMPVTMGPRSA
- change in absorbance (A340) compared to the blank [2]: significant change in absorbance
